“Also recorded” adds a separate entry of the source.
What was measured:
GRP78 and SREBP2 = experiment: Co-immunoprecipitation of GRP78 with SREBP2 in HuH7 cells; assay type: cell-based, human; settings: TG 100 nM, CDN 100 μM, CF 200 μM, 24 h
Method: Cells were grown in 10 cm dishes were resuspended in ice cold non-denaturing immunoprecipitation buffer containing 20 mM tris HCL, 137 mM NaCl, 1% NP-40, 2 mM EDTA and protease inhibitor (Roche). Total cell protein was normalized using a protein assay (BioRad) and 1 mg of protein from each sample was incubated with 2 μg of capture antibody targeted against GRP78 (Santa Cruz Biotechnology; SC-1050) and rotated on a platform for 24 h at 4° C. Following incubation, samples were exposed to 100 μl of Protein G magnetic Surebeads® (BioRad) for an additional 2 h on a rotating platform at 4° C. Beads conjugated to the anti-GRP78 antibody were subsequently isolated and the remaining sample was collected and labelled “input” for use as controls. The magnetic beads underwent 4 consecutive washes using the non-denaturing IP buffer and resuspended and boiled in 100 μl of 4× SDS-PAGE sample buffer.
To determine whether increasing ER Ca^2+ levels enhance GRP78 peptide binding capacity, HuH7 cells were treated with either CDN, which increases ER Ca^2+ levels, or TG which causes ER Ca^2+ depletion. Following treatment, the interaction taking place between GRP78 and SREBP2 was examined via immunoprecipitation of the former. By affecting ER Ca^2+ levels however, these agents also directly impact the expression and abundance of GRP78 compared to untreated cells. Therefore, assessment of the relative binding capacity GRP78 for SREBP2 between treatments required normalization of immunoprecipitations to equivalent GRP78 protein levels (FIG. 7 A).

SREBP2 = SREBP2 expression and activation in hepatocytes (real-time PCR, SRE-GFP reporter, immunoblot, immunofluorescence); assay type: cell-based, human, mouse; settings: for activation and nuclear localization of SREBP2: immunoblots of whole-cell lysates
Method: (§1) Cells were washed in phosphate-buffered saline (PBS), lysed in 4× SDS-PAGE lysis buffer and separated on 7-10% polyacrylamide gels in denaturing conditions. Gels were transferred to nitrocellulose membranes using the BioRad mini trans-blot system, blocked in 5% skim milk in tris-buffered saline (TBS) for 1 h and incubated in primary antibody overnight for 16 h at 4° C. Membranes were then exposed to horse radish peroxidase conjugated secondary antibodies and visualized using EZ-ECL chemiluminescent reagent (Froggabio). Band intensities were quantified using ImageJ software ([…]) against membranes reprobed for housekeeping proteins.
Cells were plated in 4-well chamber slides and incubated in complete DMEM for 24 h and exposed to treatments 24 h later for an additional 24 h. Cells were fixed with 4% paraformaldehyde for 30 minutes and washed with either non-permeabilizing, or permeabilizing PBS containing 0.025% Triton-X. Cells were then blocked with 1% bovine serum albumin (BSA) for 30 minutes and stained with anti-GFP antibody for 1 h in PBS containing 1% BSA. Afterwards, cells were washed and incubated with Alexa 488 fluorescently-labelled secondary antibodies (Thermofisher Scientific), as well as the DAPI nuclear stain. Slides were then mounted with permafluor and visualized using the EVOS FL colour imaging system at either 20 or 40× magnification.
(§2) RNA purification/isolation was performed using RNeasy mini kits (Qiagen) and normalized to 2 μg RNA using a NanoDrop® spectrophotometer. Samples were then reverse transcribed into cDNA using Superscript Vilo cDNA Synthesis kit (Thermofisher Scientific). Real-time PCR was executed with Fast SYBR Green (Thermo Fisher Scientific) using the ΔΔct method on the ViiA7 real-time PCR platform (Thermofisher Scientific).
Therefore, the effect of CF on TG-; induced SREBP2 activation was examined. […] SREBP2 activity was then examined at the protein level in HuH7 cells transfected with a plasmid encoding GFP driven by the sterol regulatory element (SRE-GFP; FIG. 2E to G). […] GFP expression was also visualized via immunofluorescent staining and quantified using ImageJ Software.

[1] = system: ER stress markers (GRP78, ATF4, pPERK, IRE1α, sXBP1, ATF6); experiment: ER stress / UPR readouts in hepatocytes; assay type: cell-based, human
Method: as §1
Following treatment, live cells were incubated in complete DMEM containing 5 μM Thioflavin-T (ThT; Thermofisher Scientific) for 15 minutes. Cells were then fixed in 4% paraformaldehyde and mounted with permafluor. Fluorescent staining was visualized using the EVOS FL colour system at either 20 or 40× magnification.
as §2
Because ER Ca^2+ depletion induces a compensatory unfolded protein response (UPR), it was also postulated that CF may attenuate UPR marker expression by increasing ER Ca^2+ levels. […] Reactive oxygen species production, a process known to occur during conditions of ER stress, was also attenuated by CF (FIG. 9 H). […] While increasing the protein binding ability of chaperones, such as GRP78, CF also attenuates SREBP2-driven gene expression (FIG. 7 L).

PCSK9 = PCSK9 secretion from cultured and primary hepatocytes (ELISA of medium); assay type: cell-based, human, mouse; settings: for PCSK9 secretion with Ca2+-modulating agents: ELISA of medium
Method: HuH7 and HepG2 cells were routinely grown in complete Dulbecco's Modified Eagle's Medium (Gibco, Thermofisher Scientific) supplemented with 10% fetal bovine serum (Sigma-Aldrich) and 100 U/ml of penicillin and streptomycin (Sigma-Aldrich). […] All cell treatments were carried out for 24 h unless otherwise stated. Cells were transfected with a cocktail consisting of plasmid DNA (1 μg), X-tremeGENE HP (3 μl; Thermofisher Scientific) and opti-MEM (100 μl; Thermofischer Scientific) per 1 ml complete medium containing plated cells. Human PCSK9 was overexpressed using the bicistronic pIRES-EGFP plasmid; calnexin using the mPA-GFP-N1 plasmid. To block the expression of GRP78 and CD36, siGENOME smartpool siRNA was purchased from GE Dharmacon (M-008198-02 and L-010206-00-0005 respectively) and transfected using lipofectamine RNAiMAX as per manufacturer's protocol.
Secreted PCSK9 levels were assessed directly in cell culture medium of cells grown in FBS-free medium for 24 h or in the serum isolated from either mice or human subjects. Mouse PCSK9 was measured using the Quantikinine® ELISA kit (#MCP900, R&D Systems) and human PCSK9 using the PCSK9 Quantikinine® ELISA kit (#DCP900, R&D Systems). Serum ApoB levels were also quantified using ELISAs (#DAPB00, R&D Systems). Serum samples were diluted as per manufacturer's instructions.
All animal studies were carried out in 8 h-fasted male wild-type, Pcsk9^−/− or Ampkβ1^−/− mice on the C57BL/6J background. CF (25-100 mg/kg-8 h) and CDN (50 mg/kg) treatments were administered via intraperitoneal injection unless specified otherwise. Primary mouse hepatocytes were isolated using a two-step process with EGTA ([…] in HEPES buffer, Sigma Aldrich) and collagenase (0.05% in HEPES buffer, Sigma Aldrich) in 12-week-old male mice on the C57BL/6J background. Cells were then washed, centrifuged, and plated following isolation in cell strainers. Hepatosure® 100-donor pooled primary human hepatocytes were purchased from Xenotech. Primary hepatocytes were regularly grown in William's E medium (Gibco, Thermo Fisher Scientific) containing 10% fetal bovine serum, 100 IU/ml penicillin, and 100 µg/ml streptomycin.

In the case of `Cc1ccc2cccc(NC(=O)c3ccc(OC(C)C)cc3)c2n1` [CDN], the “interaction of GRP78 with pre-mature SREBP2” value (“interaction of GRP78” below) (GRP78 and SREBP2) is reported as “enhanced the ability of GRP78 to interact with and sequester pre-mature SREBP2”, the “activation and nuclear localization of SREBP2” value (SREBP2) is reported as “antagonized the activation and nuclear localization of SREBP2” and the “TG-induced GRP78 expression” value ([1]; HuH7, with TG 100 nM) is reported as “blocked TG-induced expression”. The “PCSK9 secretion with Ca2+-modulating agents” value (PCSK9) was “blocked PCSK9 secretion”.

For `C/C=C(/C)C(=O)O[C@H]1C(C)=C2[C@H]([C@@H]1OC(=O)CCCCCCC)[C@@](C)(OC(C)=O)C[C@H](OC(=O)CCC)[C@@]1(O)[C@H]2OC(=O)[C@@]1(C)O` [TG, thapsigargin], the “interaction of GRP78” value (GRP78 and SREBP2) was “lost its intrinsic ability to interact with pre-mature SREBP2”, the “activation and nuclear localization of SREBP2” value (SREBP2) was “opposite effect” and the GRP78 expression ([1]; HuH7, TG 100 nM, CPA 10 μM) was “increased the expression of GRP78”. The “PCSK9 secretion with Ca2+-modulating agents” value (PCSK9) was “blocked PCSK9 secretion”.

With `Cn1c(=O)c2c(ncn2C)n(C)c1=O` [caffeine, 1,3,7-Trimethylxanthine] the “interaction of GRP78” value (GRP78 and SREBP2) was “increases the SREBP2-binding capacity of GRP78”, the “re-localization of SREBP2 to the nucleus” value (SREBP2; HuH7, TG-treated, immunofluorescence) was “attenuated the re-localization of SREBP2” and the “nuclear SREBP2 (nSREBP2) and SRE-driven GFP expression” value (SREBP2; HuH7 transfected with SRE-GFP, presence and absence of TG, listed as CF) was “blocked the nuclear/activated isoform of SREBP2; also recorded: blocks SREBP2 activation”. The SREBP2 expression (SREBP2; PMH, PHH, HepG2, real-time PCR) was “blocked the expression of SREBP2”, the “activation and nuclear localization of SREBP2” value (SREBP2) was “antagonized the activation and nuclear localization of SREBP2” and the “thioflavin-T-stained misfolded protein aggregates and FLAG-sXBP1 expression” value ([1]; HuH7) was “blocked the accumulation of thioflavin-T-stained misfolded protein aggregates”. The “reactive oxygen species production” value ([1]; HuH7, TG 100 nM) was “attenuated”, the “expression of pPERK, IRE1α, sXBP1, ATF4 and ATF6” value ([1]; HuH7, immunoblotting and real-time PCR, listed as CF) was “reduction in the expression of pPERK, IRE1α, sXBP1, ATF4 and ATF6; also recorded: protects against ER stress” and the “mRNA of ER stress markers GRP78 and ATF4” value ([1]; PHH, CF 200 μM) was “reduction in mRNA transcript levels of ER stress markers”. The PCSK9 secretion (PCSK9; HuH7, HepG2, PMH, PHH, listed as CF) was “blocked the secretion of PCSK9; also recorded: blocks PCSK9 expression and secretion”.

Source: US20260151398A1, “COMPOUNDS FOR REDUCING CHOLESTEROL AND TREATING LIVER AND KIDNEY DISEASE” (McMaster University, priority 2021, published 2026)
